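Protocol summary: plate cells (96-well), add compound at 5 concentrations, incubate 48 h, interpolate endpoints linearly. GI50 = concentration required for 50% inhibition of growth. The concentration for full growth arrest is given as TGI.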
What was measured:
Test in all cases: inhibition of tumour cell growth, NCI panel, 48 h
SK-MEL-2 melanoma = system: SK-MEL-2 melanoma
U251 CNS = system: U251 CNS
OVCAR-5 ovarian = system: OVCAR-5 ovarian
SF-268 CNS = system: SF-268 CNS
SR leukemia = system: SR leukemia
NCI/ADR-RES ovarian = system: NCI/ADR-RES ovarian
CAKI-1 renal = system: CAKI-1 renal
ACHN renal = system: ACHN renal
786-0 renal = system: 786-0 renal
TK-10 renal = system: TK-10 renal
OVCAR-8 ovarian = system: OVCAR-8 ovarian
MCF7 breast = system: MCF7 breast
NCI-H23 lung = system: NCI-H23 lung
HOP-92 NSCLC = system: HOP-92 NSCLC
M14 melanoma = system: M14 melanoma
MDA-MB-435 = system: MDA-MB-435
HCC-2998 colon = system: HCC-2998 colon
SNB-19 CNS = system: SNB-19 CNS
SF-295 CNS = system: SF-295 CNS
UACC-62 melanoma = system: UACC-62 melanoma
CCRF-CEM leukemia = system: CCRF-CEM leukemia
RXF 393 renal = system: RXF 393 renal
BT-549 breast = system: BT-549 breast
A498 renal = system: A498 renal
LOX IMVI melanoma = system: LOX IMVI melanoma
SK-MEL-28 melanoma = system: SK-MEL-28 melanoma
SF-539 CNS = system: SF-539 CNS
DU-145 prostate = system: DU-145 prostate
RPMI-8226 leukemia = system: RPMI-8226 leukemia
SK-OV-3 ovarian = system: SK-OV-3 ovarian
OVCAR-4 ovarian = system: OVCAR-4 ovarian
HT29 colon = system: HT29 colon
K-562 leukemia = system: K-562 leukemia
HL-60(TB) leukemia = system: HL-60(TB) leukemia
NCI-H522 lung = system: NCI-H522 lung
KM12 colon = system: KM12 colon
NCI-H460 lung = system: NCI-H460 lung
NCI-H226 lung = system: NCI-H226 lung
SW-620 colon = system: SW-620 colon
MALME-3M melanoma = system: MALME-3M melanoma
SNB-75 CNS = system: SNB-75 CNS
COLO 205 colon = system: COLO 205 colon
MDA-MB-231 breast = system: MDA-MB-231 breast
HCT-116 colon = system: HCT-116 colon
UACC-257 melanoma = system: UACC-257 melanoma
HCT-15 colon = system: HCT-15 colon
A549 NSCLC = system: A549 NSCLC
HS 578T breast = system: HS 578T breast
IGROV1 ovarian = system: IGROV1 ovarian
T-47D breast = system: T-47D breast
OVCAR-3 ovarian = system: OVCAR-3 ovarian
SK-MEL-5 melanoma = system: SK-MEL-5 melanoma
HOP-62 NSCLC = system: HOP-62 NSCLC
UO-31 renal = system: UO-31 renal
MOLT-4 leukemia = system: MOLT-4 leukemia
PC-3 prostate = system: PC-3 prostate

Compound `COc1cccc2c1O/C(=C\c1ncc([N+](=O)[O-])n1C)C2=O` has a GI50 (SK-MEL-2 melanoma) of 242 nM, a TGI (SK-MEL-2 melanoma) of 607 nM and a GI50 (U251 CNS) of 745 nM. It also gave a TGI (U251 CNS) of 3190 nM, a GI50 (OVCAR-5 ovarian) of 1700 nM and a TGI (OVCAR-5 ovarian) of 5820 nM. For the same compound, the GI50 (SF-268 CNS) was 221 nM, the TGI (SF-268 CNS) was 816 nM and the GI50 (SR leukemia) was less than 16.5 nM. For the same compound, the TGI (SR leukemia) was 165 nM, the GI50 (NCI/ADR-RES ovarian) was 277 nM and the TGI (NCI/ADR-RES ovarian) was 2900 nM. It also gave a GI50 (CAKI-1 renal) of 200 nM, a TGI (CAKI-1 renal) of 579 nM and a GI50 (ACHN renal) of 82.6 nM. It also gave a TGI (ACHN renal) of 332 nM, a GI50 (786-0 renal) of 375 nM and a TGI (786-0 renal) of 3890 nM. For the same compound, the GI50 (TK-10 renal) was 870 nM, the GI50 (OVCAR-8 ovarian) was 167 nM and the GI50 (MCF7 breast) was 467 nM. It also gave a TGI (MCF7 breast) of 5040 nM, a GI50 (NCI-H23 lung) of 270 nM and a TGI (NCI-H23 lung) of 1310 nM. The GI50 (HOP-92 NSCLC) was 343 nM, the TGI (HOP-92 NSCLC) was 1680 nM and the GI50 (M14 melanoma) was 218 nM. It also gave a TGI (M14 melanoma) of 719 nM, a GI50 (MDA-MB-435) of 133 nM and a TGI (MDA-MB-435) of 290 nM. The GI50 (HCC-2998 colon) was 1860 nM, the TGI (HCC-2998 colon) was 7570 nM and the GI50 (SNB-19 CNS) was 1300 nM. For the same compound, the TGI (SNB-19 CNS) was 5750 nM, the GI50 (SF-295 CNS) was 1270 nM and the TGI (SF-295 CNS) was 4490 nM. For the same compound, the GI50 (UACC-62 melanoma) was 569 nM, the TGI (UACC-62 melanoma) was 1670 nM and the GI50 (CCRF-CEM leukemia) was 53.7 nM. The TGI (CCRF-CEM leukemia) was 384 nM, the GI50 (RXF 393 renal) was 229 nM and the TGI (RXF 393 renal) was 648 nM. The GI50 (BT-549 breast) was 413 nM, the TGI (BT-549 breast) was 2650 nM and the GI50 (A498 renal) was 1390 nM. The TGI (A498 renal) was 3420 nM, the GI50 (LOX IMVI melanoma) was 116 nM and the TGI (LOX IMVI melanoma) was 414 nM. The GI50 (SK-MEL-28 melanoma) was 239 nM, the TGI (SK-MEL-28 melanoma) was 607 nM and the GI50 (SF-539 CNS) was 1320 nM. It also gave a TGI (SF-539 CNS) of 3510 nM, a GI50 (DU-145 prostate) of 266 nM and a TGI (DU-145 prostate) of 809 nM. The GI50 (RPMI-8226 leukemia) was 949 nM, the TGI (RPMI-8226 leukemia) was 4110 nM and the GI50 (SK-OV-3 ovarian) was 911 nM. For the same compound, the TGI (SK-OV-3 ovarian) was 4210 nM, the GI50 (OVCAR-4 ovarian) was 1920 nM and the TGI (OVCAR-4 ovarian) was 6230 nM. The GI50 (HT29 colon) was 154 nM, the TGI (HT29 colon) was 599 nM and the GI50 (K-562 leukemia) was 422 nM. For the same compound, the TGI (K-562 leukemia) was 6220 nM, the GI50 (HL-60(TB) leukemia) was 234 nM and the TGI (HL-60(TB) leukemia) was 1350 nM. It also gave a GI50 (NCI-H522 lung) of 187 nM, a TGI (NCI-H522 lung) of 474 nM and a GI50 (KM12 colon) of 348 nM. For the same compound, the TGI (KM12 colon) was 1550 nM, the GI50 (NCI-H460 lung) was 203 nM and the TGI (NCI-H460 lung) was 603 nM. The GI50 (NCI-H226 lung) was 1470 nM, the TGI (NCI-H226 lung) was 4810 nM and the GI50 (SW-620 colon) was 74.7 nM. It also gave a TGI (SW-620 colon) of 1700 nM, a GI50 (MALME-3M melanoma) of 224 nM and a TGI (MALME-3M melanoma) of 563 nM. The GI50 (SNB-75 CNS) was 1390 nM, the TGI (SNB-75 CNS) was 3970 nM and the GI50 (COLO 205 colon) was 254 nM. For the same compound, the TGI (COLO 205 colon) was 1100 nM, the GI50 (MDA-MB-231 breast) was 310 nM and the TGI (MDA-MB-231 breast) was 1570 nM. For the same compound, the GI50 (HCT-116 colon) was 82.5 nM, the TGI (HCT-116 colon) was 691 nM and the GI50 (UACC-257 melanoma) was 531 nM. The TGI (UACC-257 melanoma) was 4990 nM, the GI50 (HCT-15 colon) was 128 nM and the TGI (HCT-15 colon) was 404 nM. For the same compound, the GI50 (A549 NSCLC) was 509 nM, the TGI (A549 NSCLC) was 3450 nM and the GI50 (HS 578T breast) was 1040 nM. The TGI (HS 578T breast) was greater than 21000 nM, the GI50 (IGROV1 ovarian) was 303 nM and the TGI (IGROV1 ovarian) was 2460 nM. For the same compound, the GI50 (T-47D breast) was 8250 nM, the TGI (T-47D breast) was 52900 nM and the GI50 (OVCAR-3 ovarian) was 236 nM. The TGI (OVCAR-3 ovarian) was 632 nM, the GI50 (SK-MEL-5 melanoma) was 186 nM and the TGI (SK-MEL-5 melanoma) was 502 nM. The GI50 (HOP-62 NSCLC) was 716 nM, the TGI (HOP-62 NSCLC) was 2250 nM and the GI50 (UO-31 renal) was 173 nM. It also gave a TGI (UO-31 renal) of 622 nM, a GI50 (MOLT-4 leukemia) of 68.9 nM and a TGI (MOLT-4 leukemia) of 1360 nM. For the same compound, the GI50 (PC-3 prostate) was 662 nM.
